# Like-named read-outs stand apart in the source and are kept apart here. Marks after values point to notes of the source that are not given here.
SMILES,Log P (pH 2.7),Log P (pH 7.5),Log P (pH 2.3)
CCOC(=O)C(C#N)=C(NC(C)c1ccccn1)c1cn(C)nc1C(C)(F)F (centres unmarked) [Compound 315],2.57^[a],,
CCOC(=O)C(C#N)=C(NC(C)c1ccccn1)c1c(C(F)F)nn(C)c1F (centres unmarked) [Compound 316],2.73^[a],,
C#CCNC(=O)C(C#N)=C(NC(C)c1nccs1)c1cccnc1Cl (centres unmarked) [Compound 317],2.03^[a],,
CCOC(=O)C(C#N)=C(NC(C)c1nccs1)c1ccncc1F (centres unmarked) [Compound 318],2.41^[a],,
CCOC(=O)C(C#N)=C(NCc1csc(-c2ccccc2)n1)c1cccnc1Cl [Compound 319],3.63^[a],,
CCOC(=O)C(C#N)=C(NC(C)Cc1ccncc1)c1cccnc1Cl (centres unmarked) [Compound 320],1.64^[a],,
CCOC(=O)C(C#N)=C(NC(C)c1cnn(C)c1)c1cccnc1Cl (centres unmarked) [Compound 321],2.2^[a],,
CCOC(=O)C(C#N)=C(NC(C)c1csc(Cl)n1)c1cccnc1Cl (centres unmarked) [Compound 322],3.3^[a],,
CCOC(=O)C(C#N)=C(NCc1ccc2ccccc2n1)c1cccnc1Cl [Compound 323],3.13^[a],,
CC(NC(=C(C#N)C(=O)NCC(F)(F)F)c1cccnc1Cl)c1nccs1 (centres unmarked) [Compound 324],2.44^[a],,
CCOC(=O)C(C#N)=C(NC(C)c1ccccn1)c1cn(C)nc1C(F)F (centres unmarked) [Compound 325],2.39^[a],,
CCOC(=O)C(C#N)=C(NC(C)c1nccs1)c1cn(C)nc1C(F)F (centres unmarked) [Compound 326],2.44^[a],,
COCCNC(=O)C(C#N)=C(NC(C)c1nccs1)c1cccnc1Cl (centres unmarked) [Compound 327],1.93^[a],,
CCNC(=O)C(C#N)=C(NC(C)c1nccs1)c1cccnc1Cl (centres unmarked) [Compound 328],2.07,2.05,
CCOC(=O)C(C#N)=C(NC(C)c1ncccn1)c1cccnc1Cl (centres unmarked) [Compound 329],2.13^[a],,
CCOC(=O)C(C#N)=C(NC(C)c1ccncn1)c1cccnc1Cl (centres unmarked) [Compound 330],2.01^[a],,
CCOC(=O)C(C#N)=C(NCC(C)c1nccs1)c1cccnc1Cl (centres unmarked) [Compound 331],2.57^[a],,
COC(=O)C(C#N)=C(NC(C)c1ccc(Cl)cc1)c1cccnc1Cl (centres unmarked) [Compound 332],3.24^[a],,
COC(=O)C(C#N)=C(Nc1ccccc1SC)c1cccnc1Cl [Compound 334],,2.82^[c]; 2.82^[b],2.82^[c]; 2.82^[b]

SMILES,Log P (pH 2.7),Log P (pH 7.5),Log P (pH 2.3)
COC(=O)C(C#N)=C(Nc1ccccc1OC)c1cccnc1Cl [Compound 335],,2.56,2.58
COC(=O)C(C#N)=C(NCc1ccc(Cl)cc1)c1cccnc1Cl [Compound 336],,2.96,2.98
COC(=O)C(C#N)=C(NC(C)(C)c1ccc(Cl)cc1)c1cccnc1Cl [Compound 337],3.33^[a],,
COC(=O)C(C#N)=C(NCc1ccc(Cl)nc1)c1cccnc1Cl [Compound 338],,2.1,2.11
COC(=O)C(C#N)=C(Nc1cccc(SC)c1)c1cccnc1Cl [Compound 339],,2.83,3.04
CCOC(=O)C(C#N)=C(Nc1ccccc1SC)c1cccnc1Cl [Compound 341],,3.17,3.32
CCOC(=O)C(C#N)=C(NC(C)c1ccc(Cl)cc1)c1cccnc1Cl (centres unmarked) [Compound 342],,3.61,
CCOC(=O)C(C#N)=C(Nc1ccccc1SC)c1ccc(C)nc1Cl [Compound 343],,3.41,3.57
CSc1ccccc1NC(=C(C#N)C(=O)OCC(F)(F)F)c1cccnc1Cl [Compound 344],,3.21,3.55
CCOC(=O)C(C#N)=C(NC(C)c1ccc(Cl)cc1)c1cccnc1Cl (centres unmarked) [Compound 345],,3.63,
CCOC(=O)C(C#N)=C(Nc1ccccc1SC)c1cc(Cl)cnc1Cl [Compound 346],,3.7,3.94
CSc1ccccc1NC(=C(C#N)C(=O)OCC(C)C)c1cccnc1Cl [Compound 347],,3.94,4.15
CCOC(=O)C(C#N)=C(NC(C)c1ccc(Cl)cc1)c1cn(C)nc1C(F)F (centres unmarked) [Compound 348],3.6^[a],,
CCOC(=O)C(C#N)=C(Nc1ccccc1SC)c1cn(C)nc1C(F)F [Compound 349],3.13^[a],,
CCOC(=O)C(C#N)=C(Nc1ccccc1SC)c1ncc(C(F)(F)F)cc1Cl [Compound 350],4.26^[a],,
COC(=O)C(C#N)=C(NC(C)c1ccc(Cl)cc1)c1cn(C)nc1C(F)F (centres unmarked) [Compound 356],3.31^[a],,
COC(=O)C(C#N)=C(Nc1ccccc1SC)c1cn(C)nc1C(F)F [Compound 357],2.8^[a],,
CCOC(=O)C(C#N)=C(Nc1ccccc1SC)c1ccc(Cl)nc1Cl [Compound 360],,3.79,3.97

# The remaining lines, values ahead:
Log P (pH 2.7),Log P (pH 7.5),Log P (pH 2.3),SMILES
4.56^[a],,,CCOC(=O)C(C#N)=C(NC(C)c1ccc(Cl)cc1)c1ncc(C(F)(F)F)cc1Cl (centres unmarked) [Compound 351]
3.62^[a],,,CCOC(=O)C(C#N)=C(NC(C)c1ccc(Cl)cc1)c1c(C)nn(C)c1F (centres unmarked) [Compound 352]
3.21^[a],,,CCOC(=O)C(C#N)=C(Nc1ccccc1SC)c1c(C)nn(C)c1F [Compound 354]
4.65^[a],,,CCOC(=O)C(C#N)=C(NC(C)c1ccc(Cl)cc1)c1nsc(Cl)c1Cl (centres unmarked) [Compound 355]
4.31^[a],,,CCOC(=O)C(C#N)=C(Nc1ccccc1SC)c1nsc(Cl)c1Cl [Compound 358]
3.62^[a],,,CCOC(=O)C(C#N)=C(NC(C)c1ccc(Cl)cc1)c1conc1C (centres unmarked) [Compound 362]
3.21^[a],,,CCOC(=O)C(C#N)=C(Nc1ccccc1SC)c1conc1C [Compound 363]
4.42^[a],,,CCOC(=O)C(C#N)=C(NC(C)c1ccc(Cl)cc1)c1sccc1Br (centres unmarked) [Compound 365]
3.96^[a],,,CCOC(=O)C(C#N)=C(Nc1ccccc1SC)c1sccc1Br [Compound 366]
3.8^[a],,,CCOC(=O)C(C#N)=C(NC(C)c1ccc(Cl)cc1)c1c(C)nn(C)c1Cl (centres unmarked) [Compound 367]
4.47^[a],,,CCOC(=O)C(C#N)=C(NC(C)c1ccc(Cl)cc1)c1sccc1C(F)(F)F (centres unmarked) [Compound 368]
4.01^[a],,,CCOC(=O)C(C#N)=C(Nc1ccccc1SC)c1sccc1C(F)(F)F [Compound 369]
2.98^[a],,,COC(=O)C(C#N)=C(NC(C)(C)c1ccccc1)c1cccnc1Cl [Compound 370]
1.24^[a],,,COC(=O)C(C#N)=C(NC(C)c1ccncc1)c1cccnc1Cl (centres unmarked) [Compound 371]
3.58^[a],,,CCC(NC(=C(C#N)C(=O)OC)c1cccnc1Cl)c1cccc(Cl)c1 (centres unmarked) [Compound 372]
3.15^[a],,,COC(=O)C(C#N)=C(NC(C)c1ccccc1C)c1cccnc1Cl (centres unmarked) [Compound 373]
3.73^[a],,,COC(=O)C(C#N)=C(NC(C)c1ccc(Cl)cc1Cl)c1cccnc1Cl (centres unmarked) [Compound 374]
3.19^[a],,,COC(=O)C(C#N)=C(NC(C)c1ccccc1Cl)c1cccnc1Cl (centres unmarked) [Compound 375]
3.58^[a],,,CCC(NC(=C(C#N)C(=O)OC)c1cccnc1Cl)c1ccc(Cl)cc1 (centres unmarked) [Compound 376]
2.89^[a],,,COC(=O)C(C#N)=C(NC(C)c1cccc(OC)c1)c1cccnc1Cl (centres unmarked) [Compound 377]
3.02^[a],,,CCOc1ccc(C(C)NC(=C(C#N)C(=O)OC)c2cccnc2Cl)cc1 (centres unmarked) [Compound 378]
4^[a],,,COC(=O)C(C#N)=C(NC(C)c1ccc(C(C)C)cc1)c1cccnc1Cl (centres unmarked) [Compound 379]

# From US8476197B2, “Aminopropenoates as fungicides” (priority 2009, dated 2013)
